Values joined by “and” are separate entries in the source; they are usually repeats but may differ in a detail not shown here. Identical values can stand only once.
Assays:
taxol-stabilized MTs = assay: Compound-based depolymerization of taxol-stabilized MTs in vitro; type: biochemical, bovine; conditions: compound 50 µmol/l; taxol (20 µmol/l)-stabilized MTs
Method: To test this hypothesis, we treated HeLa cells with 0.5 µmol/l taxol, thereby arresting them in metaphase with stabilized spindles. […] To quantify the taxol-mediated inhibition of MT disassembly by compound B, we measured in vitro the depolymerization of taxol (20 µmol/l)-stabilized MTs following incubation with 50 µmol/l compound B (the screen condition). Nocodazole and maytansine (both at 50 µmol/l) were included as controls. At 50 µmol/l, compound B depolymerized 3% of the taxol-stabilized MT population, while nocodazole and maytansine depolymerized 11% and 31% of the taxol-treated MTs, respectively (Fig. 4B). […] This finding further supports our hypothesis that the interaction of compound B with the stabilized MTs must have prevented the Ndc80^488 complex from establishing contact with the MT surface.
(§1) MTs were polymerized (30 min, 37°C) from a 1∶10 mixture of rhodamine-labeled:unlabeled bovine brain αβ-tubulin (Cytoskeleton) in BRB-80 buffer (80 mmol/l PIPES pH 6.8, 1 mmol/l MgCl2, 1 mmol/l EGTA) and were then stabilized with 20 µmol/l taxol. The Ndc80^488 complex (0.1 µmol/l) was incubated with 100 µmol/l compound (30 min, 24°C) in 96-well polypropylene plates (Eppendorf). The 10,000 compound DIVERset library (Chembridge) and 200 compounds from the Department of Medicinal Chemistry and Technologies, University of Rome La Sapienza were used in the screen. Next, the MTs (100 nmol/l) were added to the compound-Ndc80^488 complex solution in a 1∶1 v/v ratio. After incubation (10 min, 24°C), the reaction mixtures were transferred to 96-well glass-bottom plates (Greiner Bio-one). Each well was imaged at 519 nm and 590 nm with an IX81 Olympus inverted wide-field microscope (Olympus). Total internal reflection fluorescence imaging was performed with an Olympus IX71 inverted wide-field microscope (Olympus). ImageJ was used for image processing (NIH, USA).
Taxol-stabilized MTs were prepared and diluted as described for the Ndc80^488 binding experiments. Varying compound concentrations in 10 µl of DMSO were added to 490 µl of diluted MTs at 37°C. Following incubation (30 min, 37°C), 450 µl of each mixture was centrifuged (10 min; 30,000 rpm; 37°C) in a Beckman Optima TLX centrifuge (TLA120.1 rotor). Pellets were dissolved in 25 µl of 8 mol/l urea, and the protein content of 20 µl was compared with that from pellets formed without compound.

αβ-tubulin = assay: Tubulin polymerization tracked turbidimetrically at 350 nm; type: biochemical; conditions: turbidimetric; versus compound B
Method: To quantify the antitubulin activity of compound B, we added 1–50 µmol/l compound B to 10 µmol/l αβ-tubulin. […] For this purpose, MTs were assembled from 10 µmol/l αβ-tubulin; 5 min into the reaction compound B was added in concentrations up to 200 µmol/l. MT depolymerization was tracked as a decrease in turbidity at 350 nm (Fig. 5B).
Polymerization of 10 µmol/l αβ-tubulin in BRB-80 buffer was monitored turbidimetrically at 350 nm for 15 min in a temperature-controlled spectrophotometer (37°C; SpectraMax Plus^384, Molecular Devices). To probe the effect of a compound on MT stability the molecule was added 5 min after initiation of tubulin assembly. The decrease in protein turbidity (350 nm) resulting from MT depolymerization was followed for 15 min at 37°C [13]. Quantitative comparisons of drug effects on tubulin assembly were also examined in 0.8 M glutamate with a 15 min drug-tubulin preincubation prior to the addition of GTP [14]. Tubulin assembly was monitored for 20 min at 30°C in Beckman DU7400/7500 spectrophotometers, and the compound concentration inhibiting tubulin assembly by 50% was determined.

[1] = system: colchicine site in αβ-tubulin; assay: [3H]colchicine competition (DEAE-cellulose filter method); type: binding; conditions: [3H]colchicine 5 µmol/l, tubulin 1 µmol/l
From the text: Agents that inhibit tubulin polymerization and destabilize MTs include the colchicinoids, combretastatins, benzimidazole carbamates, vinca alkaloids, and maytansinoids. These drugs act primarily at β-tubulin in the αβ-heterodimer, albeit at different sites. Colchicinoids, combretastatins and benzimidazole carbamates (e.g. nocodazole) localize to the colchicine site near the C-terminus of β-tubulin at the αβ-tubulin intradimer interface, [16], whereas vinca alkaloids and maytansinoids localize to the N-terminal GTPase domain of β-tubulin [17], [18]. […] Its binding affinity, however, was ∼3-fold lower than that of nocodazole (compare values at 5 µmol/l and 20 µmol/l, Fig. 5C).
Tubulin binding of [^3H]colchicine was measured by the DEAE-cellulose filter method. Reaction mixtures contained 1.0 µmol/l αβ-tubulin, 1.0 mol/l monosodium glutamate, 0.1 mol/l glucose-1-phosphate, 1.0 mmol/l MgCl2, 1.0 mmol/l GTP, 0.5 mg/ml BSA, 5% DMSO, 5 µmol/l [^3H]colchicine, and inhibitor at 1, 5, 20 or 50 µmol/l. These reaction conditions strongly stabilize the colchicine-binding activity of tubulin [21].

[2] = target: recombinant human Ndc80 kinetochore complex binding to taxol-stabilized microtubules; assay: Ndc80^488 complex-MT binding assay (fluorescence microscopy / TIRF); conditions: for IC50: total internal reflection fluorescence microscopy, Ndc80^488 complex 0.1 µmol/l, taxol-stabilized MTs; for Fold more active than compound B in the Ndc80^488 complex-MT binding assay: versus compound B
From the text: To screen compound libraries for molecules inhibiting binding of the outer kinetochore Ndc80 complex (Ndc80, Nuf2, Spc24, Spc25) to MTs, we used a fluorescence microscopy-based in vitro approach (Fig. 1). First, the recombinant human Ndc80 construct, used to crystallize the complex, was produced in Escherichia coli using a bicistronic plasmid from which the Nuf2-Spc24 and Ndc80-Spc25 peptides were generated (Fig. 1A). Following their intracellular assembly, the complex was purified from E. coli cell extract based on the GST tag at the N-terminus of Nuf2. The complex was released in solution with PreScission Protease (its recognition sequence was introduced between the GST tag and the NUF2 coding sequence) and was separated from contaminants by gel filtration chromatography (Fig. 1A). The high degree of purity of the preparation was confirmed by SDS-PAGE analysis and coomassie staining, which identified only both peptides (Fig. 1B). Next, the Ndc80 complex was fluorescently labeled with the Alexa Fluor 488 C5-maleimide (next named the Ndc80^488 complex) and was separated from unreacted fluorophore by gel filtration chromatography. The final preparation was highly pure as evidenced by gel filtration analysis and detection at 519 nm (emission maximum of the Alexa Fluor 488 dye) and at 280 nm (intrinsic protein fluorescence) (Fig. 1B). Next, the Ndc80^488 complex (0.1 µmol/l) was incubated with 10,200 compounds (comprising the Chembridge DIVERset and a compound collection from the Univ. Rome) at a starting concentration of 50 µmol/l. Binding (or lack thereof) of the complex to rhodamine-labeled taxol-stabilized MTs (0.1 µmol/l) was scored by wide-field fluorescence microscopy (Fig. 1C; images in Fig. 2A). […] Total internal reflection fluorescence microscopy was used to establish the IC50 value of the compound, which was measured to be ∼20 µmol/l (Fig. 2C).
Recombinant human Ndc80 complex (Ndc80^Bonsai complex) was produced in Escherichia coli using a bicistronic expression plasmid (Fig. 1A, [12]). Following transcription from the TAC promoter/operator by induction with 0.4 mmol/l IPTG (20°C, 15 h), GST-Nuf2-Spc24 and Ndc80-Spc25 polypeptides were generated, which dimerized intracellulary into the GST-Ndc80 complex. The complex was isolated from E. coli cell extract following incubation with glutathione beads. The complex was released from the beads with PreScission Protease (GE Healthcare Life Sciences) and contaminants were removed by gel filtration chromatography (Superdex 200, GE Healthcare Life Sciences). On average 4 mg of Ndc80 complex were obtained from 1 liter of cell culture. Next, 1 mg Ndc80 complex was labeled with 0.1 mg Alexa Fluor 488 C5-maleimide fluorophore (Invitrogen) at a 1.5-2 stoichiometry. The fluorescent complex (Ndc80^488 complex) was separated from unreacted fluorophore by gel filtration chromatography (Fig. 1B) and was then used to screen for compounds inhibiting Ndc80^488 complex-MT binding (Fig. 1C). The Ndc80^488 complex is fully functional as it is recruited to and acts at kinetochores when injected into prometaphase HeLa cells.
as §1, with “Each well was imaged at 519 nm and 590 nm with an IX81 Olympus inverted wide-field microscope (Olympus). Total internal reflection fluorescence imaging was performed with an Olympus IX71 inverted wide-field microscope (Olympus). ImageJ was used for image processing (NIH, USA).” left out

HeLa cells = assay: Mitotic delay and cell death in G1/S-synchronized HeLa cells (time-lapse videomicroscopy); type: cell-based, human; conditions: HeLa released from G1/S; 500 nmol/l
Method: At compound B concentrations of 5 µmol/l and above, the cells arrested robustly in metaphase (∼15 h) and then underwent cell death, as diagnosed by cell shrinkage (Fig. 3B). […] This phenotype is indicative of chromatids being unable to bind to spindle MTs and/or of spindle defects, as observed with nocodazole (Fig. 3C). […] Because drugs that inhibit tubulin polymerization also destabilize MTs, we next probed whether compound B destabilized metaphase spindles. We arrested HeLa cells in metaphase using 10 µmol/l of proteosome inhibitor MG132. […] Thus, compound B prevents tubulin assembly and destabilizes spindle MTs in cells.
Next, we determined whether the elevated antitubulin activities of compounds A6, A8, D7 and E7 (versus compound B), and the discrepancies in activity between the compounds themselves were reflected in their effects on mitosis. G1/S synchronized HeLa cells were released into growth medium containing 100 or 500 nmol/l of these compounds or compound B; the duration of the mitotic delay by the compounds and the percentage of cells undergoing subsequent cell death were scored. […] The four compounds triggered mitotic delays to an extent that directly reflects their activities in vitro (compare Fig. 6E and Fig. 6, panels B to D). […] Of note, each of our compounds acted in cells with an efficacy exceeding those measured in vitro (compare Fig. 6E and Fig. 5). This discrepancy may be due to increased compound:tubulin ratios in cells. Alternatively, the compounds may be modified intracellularly, resulting in enhanced activity. Because compound B and the four second-generation compounds are 6-furan-2-yl-3-methyl-4-oxo-4,5,6,7-tetrahydro-1H-indole-2-carboxylic acid derivatives, we have named these tubulin inhibitors “furan-metoticas”.

Fold lower IC50 for inhibiting tubulin assembly than that of compound B (αβ-tubulin)	Fold more active than compound B as inhibitors of [3H]colchicine-tubulin binding [1]	IC50 [2]	Fold more active than compound B in the Ndc80^488 complex-MT binding assay [2]	Structure (SMILES)	Taxol-stabilized MT population depolymerized (taxol-stabilized MTs)	Effect on mitosis at 500 nmol/l (HeLa cells)
				COc1cc2cc(c1Cl)N(C)C(=O)C[C@H](OC(=O)[C@H](C)N(C)C(C)=O)[C@]1(C)O[C@H]1[C@H](C)[C@@H]1C[C@@](O)(NC(=O)O1)[C@H](OC)/C=C/C=C(\C)C2 [maytansine, reference compound]	31%	
3.0 fold	3 fold	~1 µM and 1 µM	~20 fold	C/C=C/COC(=O)c1[nH]c2c(c1C)C(=O)C[C@@H](c1ccco1)C2 [D7]		robust mitotic block, followed by cell death
2.3 fold	3 fold	~1 µM and 1 µM	~20 fold	Cc1c(C(=O)OC2CCCCC2)[nH]c2c1C(=O)C[C@@H](c1ccco1)C2 [A6]		
4.0 fold	3 fold	~1 µM and 1 µM	~20 fold	C=CCOC(=O)c1[nH]c2c(c1C)C(=O)C[C@@H](c1ccco1)C2 [E7]		robust mitotic block, followed by cell death
